Measurements published in patent US20250248926A1, “AN INJECTABLE MICROPARTICLE SYSTEM AND METHOD OF PREPARING THEREOF” (AMRITA VISHWA VIDYAPEETHAM, priority 2022, published 2025).
Like-named read-outs stand apart in the source and are kept apart here.

Tests used:
[1] = by 3rd hour, CT
Method: Contrast agent Iodine loaded microstructures are injected in left and right hemispheres of a goat brain phantom and imaged over 4 hours using MicroCT (FIG. 21 (A-E)).
Iodine loaded microstructures (in the form of injectable gels) are injected in left and right hemispheres of a goat brain phantom and imaged over 4 hours using CT (FIG. 21 (A-E)).

C6 (rat glioma) cells = test: In vitro cytotoxicity, MTT assay, C6 cells; format: cell-based
Method: (§1) Cells of seeding density 4×10^4 cells/well were treated with concentrations from 1 μM-100 μM of BCNU or PL loaded microstructures 24 hours post seeding. MTT assay was performed 96 hours post treatment. […] With radiation, the cell viability of non-drug treated controls reduced by ˜60%.

[2] = rat brain
Method: 200-250 g Wistar rats (female) were selected for the study. Respective microparticle gel was injected (10 μl/1 mg BCNU) injected at coordinates 2 mm lateral, 2 mm anterior and 2 mm depth using stereotactic equipment. Animals were euthanized 3, 7 and 15 days post injection, brains were excised and stored at −80° C. Each brain was sliced into 1 mm sections and each section was homogenized in 1 ml MilliQ water (pH 4) and precipitated using 10 ml Ethanol. The samples are centrifuged at 10000 rpm for 15 minutes for drug extraction (repeated 4 times). The solvents are evaporated using a vacuum centrifuge and then remnant pellets are analyzed for their drug content using HPLC.

[3] = tested on: T98G (human glioma) cells; test: In vitro cytotoxicity, MTT assay, T98G cells; format: cell-based; details: 100 μM (highest concentration), MTT 96 hours post treatment
Method: as §1

With `II` [Free iodine] the diffusion [1] was 1.6 cm.

`O=NN(CCCl)C(=O)NCCCl` [free BCNU, 1,3-Bis(2-chloroethyl)-1-nitrosourea] showed a viability at 100 µM (C6 (rat glioma) cells; Rattus norvegicus, C6, 96 h, read-out: cells viable (cell viability)) of about 20%, a drug in brain ([2]; day-3 post intracranial injection) of 15% and a drug in brain ([2]; day-15 post intracranial injection) of 3.9%.

With `COc1cc(/C=C/C(=O)N2CCC=CC2=O)cc(OC)c1OC` [free PL, Piperlongumine] the “cells viable (cell viability)” value (C6 (rat glioma) cells; C6 cells, 100 μM, MTT 96 hours post treatment) was about 3% and the “cells remaining (cell viability)” value [3] was 16.6%.
